From patent EP2945947B1, “INHIBITING THE TRANSIENT RECEPTOR POTENTIAL A1 ION CHANNEL” (Merck Sharp & Dohme Corp., priority 2013, dated 2014)
Values after ≈ are worked out from the molar mass of the structure shown. Counter-ions that a name gives are not always drawn. Like-named read-outs stand apart in the source and are kept apart here.

Legend:
[1] = test system: rat; experiment: Rodent cold plate pain model, Complete Freund's Adjuvant (Example 4); type: in vivo; settings: cold plate 1 °C, Figures 1 and 2
Method: CFA-induced pain test method reported in del Camino et al., J. Neurosci., 30 (45):15165-15174. Briefly, the right hind paw is sensitized to cold temperature (allodynic) by administering 0.1 mL of Complete Freund's Adjuvant (CFA) to that paw. Two to four days later, the time it takes for the animal to lift its CFA-injected paw from the cold surface is recorded compared to its un-injected normal left hind paw. […] To avoid tissue damage, the maximum cut-off time is five minutes. Animals that are allodynic (average PWL to the first three pain behaviors <150 seconds for the CFA-injected hind paw: ∼ ≥50% difference between the normal and CFA-injected paw) are included in the study and subsequently randomized across treatment groups. The following day, the animals in some groups are dosed with a test compound under blinded conditions. Following the one to two hour pre-treatment time, the post-dose PWL readings are taken again. The efficacy of the drug treatment is assessed by comparing the PWL in the drug treatment animals to those that receive the vehicle.

[2] = test system: Female Sprague Dawley rats; experiment: Rodent acute tolerability test with liver function tests (Example 5); type: in vivo, rat; design: key to Alterations in LFT: (↔) indicates blood levels of markers for potential liver damage within normal range; (↑) indicates blood levels of markers for potential liver damage elevated above normal range; settings: for Alterations in LFT / LFT: % upper normal range ALT serum levels / LFT: % upper normal range AST serum levels: about 24 hours post dose
Method: Compounds of Formula (Ia) were assessed for acute tolerability in a rodent model at dose levels ranging from 100 - 200 mg/kg based upon the minimum efficacious dose of each compound. Female Sprague Dawley rats were administered up to a 10 mL/kg dose volume of each compound in 0.9% saline at appropriate concentrations as an intravenous bolus via the lateral tail vein. The animals were observed immediately post dose and for up to twenty four hours post dose and clinical observations were recorded. Additionally, approximately twenty four hours post dose animals were euthanized and blood taken for serum chemistry analysis with a focus on liver function tests (LFTs). The maximum tolerated single dose and LFT results are summarized in Table 3, where (↔) indicates blood levels of markers for potential liver damage within normal range and (↑) indicates blood levels of markers for potential liver damage elevated above normal range. Referring to the data in Table 3, LFT blood levels of markers for potential liver damage remained within normal range for the compounds of Formula (Ia), while LFTs were elevated for Comparator Compounds including 5-10 fold elevation above normal for ALT and AST blood levels observed upon administration of Comparative Compound 1. […]

[3] = Aqueous solubility in buffered solutions, HPLC (Example 2); type: physicochemical; settings: kinetic from dmso stock, ambient temperature
[4] = molecular target: human TRPA1 (Homo sapiens, UniProt O75762); experiment: Inhibition of the TRPA1 ion channel, whole cell patch configuration (Example 1); type: cell-based; settings: current activation 10 µM AITC, read-out: Human TRPA1 IC50 Inward Current
Method: Compounds of Formula (Ia) inhibit the TRPA1 channel, as measured using the method of Example 1. […] Data for TRPA1 inhibition and for TRPA1 selectivity was obtained by this method for the indicated compounds of Formula (Ia), with the relevant data included in Tables 1a - f below. All currents were recorded in whole-cell configuration using EPC-9 and EPC-10 amplifiers and Patchmaster software (HEKA). […] The standard pipette solution consisted of 140mM CsAsp, 10 mM EGTA, 10 mM HEPES, 2.27 mM MgCl2, 1.91 mM CaCl2, 4 mM MgATP, and 0.1-0.3 mM Na2GTP, with pH adjusted to 7.2 with CsOH. In addition, a solution containing 145 mM CsCl, 10 mM HEPES, 10 mM EGTA and 1 mM MgCl2 (pH 7.2 adjusted with CsOH) can be used. The standard bath solution contained 150 mM NaCl, 10 mM HEPES, 10 mM glucose, 4.5 mM KCl, 1 mM EGTA, 3 mM MgCl2, with pH adjusted to 7.4 with NaOH. In some instances, 2 mM CaCl2 was added in place of EGTA and the concentration of MgCl2 was reduced to 1 mM.
Data were collected either by continuous recordings at -60 mV or by applying voltage ramps from a holding potential of 0 mV every 4 s. Continuous recordings were collected at 400 Hz and digitally filtered off-line at 10 Hz for presentation. Voltage ramps were applied from - 100 mV to 100 mV over the course of 400 ms, and data were collected at 10 kHz and filtered at 2.9 kHz. Inward and outward currents were analyzed from the ramps at -80 and 80 mV, respectively. Liquid junction potential correction was not used.
Solutions were switched using a gravity-fed continuous focal perfusion system. To achieve rapid temperature changes, two temperature control, and perfusion systems were employed simultaneously. For temperatures ≥ 22°C, a Warner Instruments bipolar temperature controller (TC-344B) and inline heater (SHM-8) were used. […] Temperatures were confirmed using a thermistor (Warner Instruments, TA-29), with temperatures at the recorded cell estimated to be within +/- 2°C of those reported.
The antagonist effects of compounds of Formula (Ia) against human TRPA1 ("hTRPA1") and for some compounds rat TRPA1 ("rTRPA1") in a whole cell patch configuration were evaluated using the in vitro assay described above. The current activation tested was 10 µM AITC, and the tested concentrations ranged from 5 µM and 500 nM. Table 1a (Comparative Compounds)

[5] = test system: rats; experiment: Rodent formalin pain model (Example 3); type: in vivo; settings: rat; for Minimal Efficacious Dose of Compound in Formalin Model: IV, statistically significant difference vs vehicle at 0 - 2 min (p≤0.05); for Duration of Pain Behavior: first two minutes after formalin, vehicle 88.6
Method: Compounds of Formula (Ia) are active in rodent models of pain induced by direct activation of the TRPA1 channel with intraplantar injection of the TRPA1 agonist formalin. Compounds of Formula (Ia) were tested in the formalin-induced pain test reported by Abbott et. al. Pain. 1995 Jan;60(1):91-102. Dubuisson et al. describe a method for assessing pain and analgesia in rats. Briefly, dilute formalin (50 µL of 3 % formalin) is injected into the plantar surface of the hind paw. […] The individual responsible for counting the pain behaviors in a particular study is blinded to the treatment groups.
Table 2 is a data table showing the results from testing compounds of Formula (Ia) in the rodent formalin-induced pain model described in […]. Rats were treated with the compounds of Formula (Ia) at various doses (0.1, 0.3, 1, 1.2, 3, 4, 10, or 30 mg/Kg IV) or with a control composition containing the vehicle (i.e., without a compound of Formula (Ia)). Pain behaviors (flinch, lift, lick, bite) were monitored following intraplantar formalin injection. Referring to Table 2, the minimum effective dose was derived from dose resulting in statistically significant difference in behavior at 0 - 2 min time period as compared with vehicle (p≤0.05).

[6] = test system: rats; experiment: Single-dose toxicity studies in rats (Example 7); type: in vivo
Method: (§1) In one single dose PK study conducted in fed and fasted rats, oral administration of Comparative Compound 2 in 30% HPCD produced adverse clinical signs in some of the fasted rats only.
(§2) Intravenous administration of Comparative Compound 2 (a nanosuspension formulation in 0.5% polysorbate 80 and 0.1% Poloxamer 188 and 0.8%NaCl) at dose levels of 3, 10, and 30 mg/kg as a single slow bolus (∼2 min) to male SD rat was well-tolerated.
(§3) Intravenous administration of Compound 1-B as a single, 30-minute infusion to SD female rats was well-tolerated at dose levels up to 300 mg/kg. No adverse clinical signs were observed concerning Compound 1-B.
(§4) Intravenous administration of Compound 5-T as a single, 30-minute infusion to SD female rats was well-tolerated at dose levels up to 300 mg/kg. No adverse clinical signs were observed concerning Compound 5-T.
(§5) A single oral dose administration of Compound 5-T in a Spray Dried Dispersion (SDD) formulation (a suspension of SDD powder) at nominal doses of 3, 30, 100, and 300 mg/kg to fed female Sprague Dawley rats were well-tolerated. No adverse clinical signs were observed concerning Compound 5-T.

[7] = Single-dose toxicity studies in rats (Example 7); type: in vivo; settings: rat, in vivo; single IP administration 100 mg/Kg, rats; read-out: plasma Cmax
Method: as §1, §2, §3, §4, §5

[8] = sodium bicarbonate buffer in water for injection/5% dextrose, pH 9.0, 50 mM sodium bicarbonate, read-out: pH 9.0 aqueous solubility
[9] = sodium phosphate buffer in water for injection/5% dextrose, pH 7.4, 75 mM sodium phosphate, read-out: pH 7.4 aqueous solubility

Sequence of human TRPA1 (O75762 whole entry): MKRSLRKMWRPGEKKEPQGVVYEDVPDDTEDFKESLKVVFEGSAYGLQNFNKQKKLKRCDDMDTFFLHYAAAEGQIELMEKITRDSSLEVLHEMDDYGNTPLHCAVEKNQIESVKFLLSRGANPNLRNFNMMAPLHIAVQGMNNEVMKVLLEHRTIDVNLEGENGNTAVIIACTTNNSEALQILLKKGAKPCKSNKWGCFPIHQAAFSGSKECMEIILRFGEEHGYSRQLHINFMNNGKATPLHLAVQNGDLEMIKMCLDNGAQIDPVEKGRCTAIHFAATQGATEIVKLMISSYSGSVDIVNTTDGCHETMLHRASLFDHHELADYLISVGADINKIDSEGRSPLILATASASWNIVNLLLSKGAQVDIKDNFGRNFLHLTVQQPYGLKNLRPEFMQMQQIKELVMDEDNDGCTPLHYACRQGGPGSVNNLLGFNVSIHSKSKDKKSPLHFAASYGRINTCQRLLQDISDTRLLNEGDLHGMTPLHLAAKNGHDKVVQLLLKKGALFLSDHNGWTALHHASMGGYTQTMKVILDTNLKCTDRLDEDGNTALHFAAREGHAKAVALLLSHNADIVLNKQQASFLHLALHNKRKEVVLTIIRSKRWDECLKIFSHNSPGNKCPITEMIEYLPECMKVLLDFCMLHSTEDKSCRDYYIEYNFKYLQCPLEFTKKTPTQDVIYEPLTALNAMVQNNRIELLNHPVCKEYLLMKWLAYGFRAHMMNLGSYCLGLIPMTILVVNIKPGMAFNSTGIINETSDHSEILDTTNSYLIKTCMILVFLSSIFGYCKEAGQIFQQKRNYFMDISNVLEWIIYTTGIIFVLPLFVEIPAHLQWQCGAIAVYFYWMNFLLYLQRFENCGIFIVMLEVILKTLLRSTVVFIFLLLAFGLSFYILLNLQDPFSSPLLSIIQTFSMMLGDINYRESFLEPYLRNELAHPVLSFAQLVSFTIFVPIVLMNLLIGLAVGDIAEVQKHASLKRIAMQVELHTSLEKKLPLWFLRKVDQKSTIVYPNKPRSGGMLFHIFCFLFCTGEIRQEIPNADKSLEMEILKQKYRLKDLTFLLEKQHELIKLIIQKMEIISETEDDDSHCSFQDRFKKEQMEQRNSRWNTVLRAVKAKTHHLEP

With `CC(C(=O)N(COP(=O)(O)O)c1cccc(-c2cnc(N3CCCC3C(F)(F)F)nc2)n1)n1cnc2c1c(=O)n(C)c(=O)n2C` (stereo not shown) [Compound 1-A, phosphate, sodium salt] as the compound, how does the “Paw Withdrawal Latency, CFA cold allodynia” value [1] read?
Its value is “reversal of CFA Cold Allodynia”.

And the “Alterations in LFT” value ([2]; single IV bolus dose 100 mg/kg)?
The value was “↔”.

And the “LFT: % upper normal range ALT serum levels” value ([2]; single IV bolus dose 100 mg/kg)?
The value was under 100%/<100%.

And the “LFT: % upper normal range AST serum levels” value ([2]; single IV bolus dose 100 mg/kg)?
Its value is under 100%/<100%.

What about the solubility kinetic at 24 h [3, 8] of the same compound?
Its solubility kinetic at 24 h is over 1000 µg/mL.

What about the solubility kinetic at 24 h [3, 9] of the same compound?
Its solubility kinetic at 24 h is over 1000 µg/mL.

What about the IC50 [4] of the same compound?
The IC50 was over 100 nM.

And the “Minimal Efficacious Dose of Compound in Formalin Model” value [5]?
Its value is 1.2 mg/kg.

What about the “Duration of Pain Behavior” value ([5]; dose 0.3 mg/kg IV) of the same compound?
The value was 77.7 s.

What about the “Duration of Pain Behavior” value ([5]; dose 1.2 mg/kg IV) of the same compound?
The value was 43.3 s.

What about the “Duration of Pain Behavior” value ([5]; dose 4 mg/kg IV) of the same compound?
The value was 19.8 s.

For `C[C@H]1CCCN1c1ncc(-c2cccc(NC(=O)Cn3cnc4c3c(=O)n(C)c(=O)n4C)n2)cn1` [Comparator 2, reference compound], which “Paw Withdrawal Latency, CFA cold allodynia” value [1] is on record?
Its value is “significantly less potency”.

And the “serum biomarkers of hepatotoxicity” value ([2]; animal studies of Example 5)?
Its value is “did not elevate the serum biomarkers of hepatotoxicity”.

And the solubility kinetic at 24 h ([3]; buffered solution (sodium acetate buffer), pH 4.0, 50mM sodium acetate in 5% dextrose, read-out: pH 4.0 aqueous solubility)?
The solubility kinetic at 24 h was 9 µg/mL (≈ 18.9 µM).

What about the solubility kinetic at 24 h ([3]; buffered solution (sodium bicarbonate buffer), pH 9.0, 50 mM sodium bicarbonate, read-out: pH 9.0 aqueous solubility) of the same compound?
Its solubility kinetic at 24 h is 10 µg/mL (≈ 21 µM).

And the solubility kinetic at 24 h ([3]; buffered solution (sodium phosphate buffer), pH 7.4, 75 mM sodium phosphate, read-out: pH 7.4 aqueous solubility)?
The solubility kinetic at 24 h was 7 µg/mL (≈ 14.7 µM).

What about the IC50 [4] of the same compound?
Its IC50 is 76 to 100 nM.

And the tolerability ([6]; IV single slow bolus, nanosuspension formulation, 3, 10, and 30 mg/kg, male SD rat)?
Its tolerability is “well-tolerated”.

And the clinical observations ([6]; IV single slow bolus, nanosuspension formulation, all three dose levels (3, 10, 30 mg/kg), ~1hr postdose, male SD rat)?
Its clinical observations is “Mild flushing/mild swelling of the ears”.

And the clinical signs ([6]; single IP administration 100 mg/Kg, rats, approximately 30 minutes to 4 hours)?
The clinical signs was “mild to moderate lethargy”.

What about the adverse clinical signs ([6]; single oral dose in 30% HPCD, 50 mg/kg and 100 mg/kg, fasted female rats only (two of three and one of three)) of the same compound?
Its adverse clinical signs is “labored breathing and red urine”.

What about the Cmax [7] of the same compound?
The Cmax was about 110 µg/mL.

For `C[C@H]1CCCN1c1ncc(-c2cncc(N(COP(=O)(O)O)C(=O)[C@H](C)n3cnc4c3c(=O)n(C)c(=O)n4C)n2)cn1` [Compound 3-J, ((S)-2-(1,3-dimethyl-2,6-dioxo-1,2,3,6-tetrahydro-7H-purin-7-yl)-N-(6-(2-((S)-2-methylpyrrolidin-1-yl)pyrimidin-5-yl)pyrazin-2-yl)propanamido)methyl dihydrogen phosphate], which “Alterations in LFT” value ([2]; single IV bolus dose 130 mg/kg) is on record?
The value was “↔”.

What about the “LFT: % upper normal range ALT serum levels” value ([2]; single IV bolus dose 130 mg/kg) of the same compound?
Its value is under 100%/<100%.

And the “LFT: % upper normal range AST serum levels” value ([2]; single IV bolus dose 130 mg/kg)?
The value was under 100%/<100%.

And the solubility kinetic at 24 h [3, 8]?
The solubility kinetic at 24 h was over 1000 µg/mL.

What about the solubility kinetic at 24 h [3, 9] of the same compound?
Its solubility kinetic at 24 h is over 1000 µg/mL.

And the IC50 [4]?
The IC50 was over 100 nM.

What about the “Minimal Efficacious Dose of Compound in Formalin Model” value [5] of the same compound?
The value was 3 mg/kg.

And the “Duration of Pain Behavior” value ([5]; dose 3 mg/kg IV)?
The value was 39.7 s.

What about the “Duration of Pain Behavior” value ([5]; dose 10 mg/kg IV) of the same compound?
The value was 1.6 s.
